Assay results as given in patent US12305217B2, “Ex vivo protease activity detection for disease detection/diagnostic, staging, monitoring and treatment” (Sunbird Bio, Inc., priority 2020, dated 2025).
Square brackets hold non-standard residues; d marks the D form. Primed or numbered codes have the meaning given here. Ends that are not written are not given here. CPQ2″ = quencher on the Lys side chain; FAM = fluorescent reporter; PEG2′ = not defined here; CPQ2 = quencher

Assays:
[1] = test system: proteases in mouse plasma (caspase activity); test: Ex vivo probe cleavage in plasma of Jo2 fulminant hepatitis mice; type: biochemical; conditions: mouse plasma 3 hours after Jo2 injection
Experimental: Fulminant hepatitis is induced after injection intraperitoneal of monoclonal antibody anti-CD95 (Jo2, BD biosciences, 4 ug/animal), and mouse plasma samples were collected 3 hours after Jo2 injection.

[2] = test system: COVID-related proteases in swab samples; test: Ex vivo probe cleavage in COVID positive and negative swab samples; type: biochemical
[3] = target: Granzyme B (Homo sapiens, UniProt P10144); test: Inhibition experiments on Probe #647 signal in COVID swab samples; conditions: healthy and COVID samples
[4] = test system: cathepsin and/or MMP protease activities; test: Ex vivo probe cleavage in plasma of healthy, NASH regression and NASH progression mice; type: biochemical; conditions: K2EDTA plasma collected at 20 weeks
Description: Plasma samples were collected from all animals at 20 weeks.
The probes showing the most differentiation in NASH were linked to cathepsin and/or MMP protease activities.

[5] = test system: NASH-related protease activity in K2EDTA plasma (cathepsin L); test: Inhibitor profiling of Probe #102 cleavage in healthy and NASH plasma; type: biochemical, mice; conditions: for effect of inhibitor on Probe #102 signal: NASH and healthy plasma
Experimental: For this experiment, all plasma samples were prepared individually and diluted 1/10e in PBS with inhibitor added directly to the samples. Inhibitor was prepared at 15× concentration to final. Substrates were diluted in DI water at 18 uM, such that the final concentration on the plate would be 6 uM. All samples were prepared such that their last dilution on the plate would not affect the desired final concentration. 10 ul of each individual sample was pipetted into their corresponding wells, and the plate was then spun down in the centrifuge at 1500 RPM for 30 seconds to coat the bottom of each well with the sample. 5 ul of the 18 uM substrate solution was pipetted into each well being used on a 384 well plate, and then the plate was spun down in the centrifuge at 1500 rpm for 30 seconds. The plate was placed immediately in the plate reader at 37° C. for a 30-minute-long fluorescence kinetic read at 485/535 extended gain.
To assess the proteolytic cleavage pattern of Probe #102, samples were tested using a pool of broad inhibitors for serine, cysteine, threonine, MMP and aspartic protease family members (broad inhibitor) to assess general protease activity, AEBSF for serine proteases, E64 for cysteine proteases, CTSi for broad cathepsin inhibition of cathepsins L, S, K and B, or specific inhibitors for cathepsin K (L00625), for cathepsin L (SID) or cathepsin B (CA074).

[6] = test system: proteases in COVID plasma; test: Ex vivo probe cleavage in COVID and healthy K2EDTA and Lithium Heparin plasma; type: biochemical
[7] = test system: carboxylesterase 1, phospholipase A2 and lipoprotein lipase; test: Spiked recombinant enzymes in human plasma with resorufin oleate as substrate; type: biochemical
[8] = K2EDTA and Lithium Heparin plasma

Granzyme B, sequence (P10144 21-247): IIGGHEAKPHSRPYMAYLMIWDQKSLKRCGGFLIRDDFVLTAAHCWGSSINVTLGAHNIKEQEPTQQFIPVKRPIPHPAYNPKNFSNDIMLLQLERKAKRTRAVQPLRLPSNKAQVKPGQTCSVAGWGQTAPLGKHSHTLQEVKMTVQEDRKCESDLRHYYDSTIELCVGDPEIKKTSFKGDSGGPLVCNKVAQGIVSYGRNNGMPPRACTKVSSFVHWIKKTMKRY

With “Probe #647: Caspase centric probe; signal measures Granzyme B activity (chain 1 GAIEPDSGGK(CPQ2); chain 2 [dK][dK]GC-NH2; not fully specified (N-terminus, C-terminus); also: 5FAM, PEG2, linkage of the two chains not given here)” the “differentiation between healthy and Jo2 samples” value [1] was “show contrast that is specific and sensitive to the Jo2 model”, the “number of active samples” value ([2]; COVID+ swab samples) was 7 and the “number of active samples” value ([2]; COVID- swab samples) was 1. The “difference between COVID+ and COVID- samples” value ([2]; swabs in saline, p=0.029) was “significant differences”, the “protease measured by the probe signal” value [3] was “measures the activity of protease Granzyme B” and the “differentiation among healthy, regression and NASH samples” value (“differentiation among healthy” for short) [4] was “can differentiate”.

For CC(C)C[C@H](NC(=O)[C@H]1O[C@@H]1C(=O)O)C(=O)NCCCCN=C(N)N [Probe E64], the “effect of inhibitor on Probe #102 signal” value [5] was “decreased NASH signal significantly”.

In the case of “Probe #428: probe used in NASH regression experiment (chain 1 {FAM}-GDRRKKLTQGK(CPQ2″)[PEG2′]; chain 2 [dK][dK]GC; not fully specified; printed as (FAM)-GDRRKKLTQG-K(CPQ2)-(PEG2)-; also: FAM, place not given here)”, the “differentiation among healthy” value [4] is reported as “can differentiate”.

“Probe #492: ex vivo fluorescent probe used in NASH mouse plasma (chain 1 {FAM}-GQRANSIRVTWGK(CPQ2″)[PEG2′]; chain 2 [dK][dK]GC; not fully specified; printed as (FAM)-GQRANSIRVTWG-K(CPQ2)-(PEG2)-; also: FAM, place not given here)” was tested, and the “differentiation among healthy” value [4] was “can differentiate”.

“Probe #84: Furin substrate (GRVKRGLAGK(CPQ2); not fully specified (N-terminus, C-terminus); also: 5-FAM, PEG2-kk-GC)” was tested, and the “differential cleavage between COVID and healthy samples” value [6, 8] was “demonstrated contrast in both sets”.

With “Probe #409: SARS CoV2 coronavirus substrate (SARS-COV2 3C protease) (GTSAVLQSGFRKGK(CPQ2); not fully specified (N-terminus, C-terminus); also: 5-FAM, PEG2-kk-GC)” the “differential cleavage between COVID and healthy samples” value ([6]; K2 EDTA samples) was “modest contrast”.

For “Probe #12: Caspase centric probe (chain 1 GDEVDGK; chain 2 KKGC; not fully specified; 5-FAM, CPQ2 quencher, PEG2; Description of Artificial Sequence: Synthetic probe; SITE 7 Lysine modified with a CPQ2 quencher; SITE 1 D-Lysine; SITE 2 D-Lysine)”, the “differentiation between healthy and Jo2 samples” value [1] was “show contrast that is specific and sensitive to the Jo2 model”.

In the case of NCCc1ccc(S(=O)(=O)F)cc1 [AEBSF], the “decrease of NASH signal” value ([5]; Probe #102, 6 uM, NASH plasma) is reported as 65% and the “decrease of healthy signal” value ([5]; Probe #102, 6 uM, healthy plasma) is reported as 60%.

In the case of CN1CCN(c2nc(-c3ccc(C(=O)NC4(C(=O)NCC#N)CCCCC4)cc3)cs2)CC1 [Probe L006235], the “effect of inhibitor on Probe #102 signal” value [5] is reported as “did not significantly decrease signal”.

For “Probe #102: a CTSL sensing probe; fluorescent reporter and quencher peptide probe (chain 1 {FAM}-GKPILFFRLKGK(CPQ2″)[PEG2′]; chain 2 [dK][dK]GC; not fully specified; printed as (FAM)-GKPILFFRLKG-K(CPQ2)-PEG2-kk-GC; also: FAM, place not given here)”, the “protease that the probe responds to” value ([5]; individual cathepsin inhibitors, FIG. 30D-F) was “specifically responds to the activity of cathepsin L (CTSL)” and the “differentiation among healthy” value [4] was “can differentiate”.

CCCC(=O)O [butyrate] was tested, and the “suitability as substrate for enzyme detection” value [7] was “promising for detection of broad range of enzymes”.

With “Probe #18: Neutrophil elastase substrate (GAAPVGK(CPQ2); not fully specified (N-terminus, C-terminus); also: 5-FAM, PEG2-kk-GC)” the “differential cleavage between COVID and healthy samples” value [6, 8] was “demonstrated contrast in both sets”.

For “Probe #8: Caspase centric probe (chain 1 GVDVADGK; chain 2 KKGC; not fully specified; 5-FAM, CPQ2 quencher, PEG2; Description of Artificial Sequence: Synthetic probe; SITE 8 Lysine modified with a CPQ2 quencher; SITE 1 D-Lysine; SITE 2 D-Lysine)”, the “differentiation between healthy and Jo2 samples” value [1] was “show contrast that is specific and sensitive to the Jo2 model”.

For CCCNC(=O)[C@H]1O[C@@H]1C(=O)N[C@H](C(=O)N1CCC[C@H]1C(=O)O)[C@@H](C)CC [CA074], the “effect of inhibitor on Probe #102 signal” value [5] was “did not significantly decrease signal”.

In the case of Resorufin oleate, the “suitability as substrate for enzyme detection” value [7] is reported as “promising for detection of broad range of enzymes”.

With “Probe #462: MMP8 substrate (GKKAKRNALGK(CPQ2); not fully specified (N-terminus, C-terminus); also: FAM, PEG2-DLys-DLys-GC)” the “differential cleavage between COVID and healthy samples” value [6, 8] was “demonstrated contrast in both sets”.
